# Experiment: method code SF-AS, from DOI: 10.2175/106143002x139965, PMID: 12150246
row,Compound,logP
1,Fc1ccc(Cl)cc1Cl,3.38
2,Nc1ccc(Cl)c(Cl)c1,2.55
3,Nc1cc([N+](=O)[O-])ccc1Cl,2.2
4,Nc1ccc(Cl)cc1[N+](=O)[O-],2.56
5,N#Cc1ccc(Cl)cc1,2.24
6,O=[N+]([O-])c1ccc(Cl)c([N+](=O)[O-])c1,2.18
7,Fc1c(Cl)cccc1Cl,3.38
8,Clc1cccc(Br)c1Cl,4.61
9,Nc1ccc([N+](=O)[O-])cc1Cl,2.14
10,Nc1ccc(F)cc1Cl,2.04
11,Clc1ccc(I)cc1,4.12
12,O=[N+]([O-])c1cc(Cl)ccc1O,2.48
13,Clc1cccc(Cl)c1Br,4.17
14,Clc1cccc(I)c1Cl,4.93
15,Nc1c(Cl)cc([N+](=O)[O-])cc1Cl,2.84

# — the SangsterLogP compilation
